Results reported in ChEMBL document CHEMBL4813919, “Development of programmable gemcitabine-GnRH pro-drugs bearing linker controllable "click" oxime bond tethers and preclinical evaluation against prostate cancer” (Eur J Med Chem, 2021).
Where a SMILES comes first, the peptide text is derived from it. [ ]: non-standard residue; d: D form. The star is where a group is joined. ξ: configuration not given here. X1 = Nc1ccn(C2OC(COC(=O)CO/N=C/C(=O)*)C(O)C2(F)F)c(=O)n1; X2 = O=C(CO/N=C/C(=O)*)Nc1ccn(C2OC(CO)C(O)C2(F)F)c(=O)n1; X3 = Nc1ccn(C2OC(CO)C(OC(=O)CO/N=C/C(=O)*)C2(F)F)c(=O)n1; ξAla(indol-2-yl) = NC(Cc1cc2ccccc2[nH]1)C(=O)O; pGlu = O=C1CC[CH](C(=O)O)N1

Key:
[1] = Metabolic stability in mouse liver microsomes assessed as GOXG1-met2 formation at 6.13 uM incubated for 1 hr by LC-MS analysis; format: ADME, Microsome
[2] = Prodrug conversion in mouse C57BL/6N assessed as gemcitabine release at 10 mg/kg, IP measured 1 to 2.5 hrs by LC-MS/MS analysis; format: ADME, organism-based; settings: in vivo, time 1-2.5 hrs
[3] = In vivo agonist activity at GnRH-R in C57BL6/N mouse assessed as release of testosterone in blood at 639.21 ug/kg, ip measured after 2 hrs by LC-MS/MS analysis; format: functional; settings: dose 639.21 µg/kg
[4] = Prodrug conversion in mouse C57BL/6N assessed as gemcitabine release at 10 mg/kg, IP measured after 15 mins by LC-MS/MS analysis; format: ADME, organism-based; settings: in vivo, 0.25 h
[5] = Drug metabolism in human DU-145 cells assessed as release of gemcitabine at 1 uM measured after 24 hrs by LC-MS/MS method; format: ADME, cell-based; settings: du-145, 24 h
[6] = Stability in human DU-145 cells at 1 uM measured upto 10 hrs by LC-MS/MS method; format: ADME, cell-based; settings: du-145, 10 h
DU-145 = assay: Antiproliferative activity against human DU-145 cells measured after 72 hrs by MTT assay; format: functional, cell-based; settings: DU-145, 72 h
[7] = Metabolic stability in human liver microsomes assessed as GOXG1-met2 formation at 6.13 uM incubated for 1 hr by LC-MS analysis; format: ADME, Microsome
[8] = Drug uptake in human DU-145 cells at 10 uM measured upto 8 hrs by LC-MS/MS method; format: ADME, cell-based; settings: du-145, 8 h
PC-3 = assay: Antiproliferative activity against human PC-3 cells measured after 72 hrs by MTT assay; format: functional, cell-based; settings: PC-3, 72 h
[9] = Drug metabolism in human plasma assessed as release of gemcitabine at 1 ug/ml measured after 4 hrs by LC-MS/MS method; format: ADME, cell-free; settings: dose 1 µg/ml
[10] = Prodrug conversion in mouse C57BL/6N assessed as gemcitabine release at 10 mg/kg, IP measured after 30 mins by LC-MS/MS analysis; format: ADME, organism-based; settings: in vivo, 0.5 h
[11] = biological target: T1, Gonadotropin-releasing hormone receptor (Homo sapiens, UniProt P30968); assay: Displacement of [125I]-DTrp6-LHRH from human GnRH-R by radioligand binding assay
T1 sequence (P30968 whole entry): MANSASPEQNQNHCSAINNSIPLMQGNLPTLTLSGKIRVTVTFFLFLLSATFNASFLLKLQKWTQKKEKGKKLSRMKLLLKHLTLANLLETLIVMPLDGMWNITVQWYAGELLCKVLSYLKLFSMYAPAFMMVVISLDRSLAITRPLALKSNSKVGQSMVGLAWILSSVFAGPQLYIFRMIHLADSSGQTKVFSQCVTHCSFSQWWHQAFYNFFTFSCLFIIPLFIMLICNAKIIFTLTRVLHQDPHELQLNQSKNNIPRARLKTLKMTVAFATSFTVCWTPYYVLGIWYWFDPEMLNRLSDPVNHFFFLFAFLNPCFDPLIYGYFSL

[12] = Drug uptake in human DU-145 cells assessed as release of gemcitabine at 10 uM measured upto 8 hrs by LC-MS/MS method; format: ADME, cell-based; settings: du-145, 8 h
[13] = Stability in human plasma at 1 ug/ml measured after 4 hrs by LC-MS/MS method; format: ADME, cell-free; settings: at 1 µg/mL
[14] = Drug uptake in C57BL/6N mouse blood at 10 mg/kg, IP measured after 30 mins of dosing by LC-MS/MS analysis; format: ADME, organism-based; settings: whole blood, read-out: Drug uptake
[15] = In vivo agonist activity at GnRH-R in C57BL6/N mouse assessed as release of testosterone in blood at 105.2 ug/kg, ip measured after 2 hrs by LC-MS/MS analysis; format: functional; settings: dose 105.2 µg/kg
[16] = In vivo agonist activity at GnRH-R in C57BL6/N mouse assessed as release of testosterone in blood at 483.6 ug/kg, ip measured after 2 hrs by LC-MS/MS analysis; format: functional; settings: dose 483.6 µg/kg

Row | SMILES | Drug metabolism [1] | Drug metabolism [2] | Activity [3] | Drug metabolism [4] | Stabilty [5] | Stabilty [6] | IC50 (DU-145) | Drug metabolism [7] | Drug uptake [8] | IC50 (PC-3) | Drug metabolism [9] | Drug metabolism [10] | IC50 [11] | Drug uptake [12] | Stabilty [13] | concentration at 0.5 h [14] | Activity [15] | Activity [16]
1 | CC(C)CC(NC(=O)C(CCCCNC(=O)/C=N/OCC(=O)OCC1OC(n2ccc(N)nc2=O)C(F)(F)C1O)NC(=O)C(Cc1ccc(O)cc1)NC(=O)C(CO)NC(=O)C(Cc1cc2ccccc2[nH]1)NC(=O)C(Cc1c[nH]cn1)NC(=O)C1CCC(=O)N1)C(=O)NC(CCCNC(=N)N)C(=O)N1CCCC1C(=O)NCC(N)=O (stereo unspecified) ([pGlu]H[ξAla(indol-2-yl)]SYK(X1)LRPG-NH2; configuration not given here) | Metabolite_Detected | 600 ng/mL | 40.1 ng/mL | 406 ng/mL | Stable | Stable | 611 nM | Metabolite_Detected | Active | 754 nM | Metabolite_Detected | 385 ng/mL | 1.9 nM | Active | Stable |  |  | 
2 | CC(C)CC(NC(=O)C(CCCCNC(=O)/C=N/OCC(=O)Nc1ccn(C2OC(CO)C(O)C2(F)F)c(=O)n1)NC(=O)C(Cc1ccc(O)cc1)NC(=O)C(CO)NC(=O)C(Cc1cc2ccccc2[nH]1)NC(=O)C(Cc1c[nH]cn1)NC(=O)C1CCC(=O)N1)C(=O)NC(CCCNC(=N)N)C(=O)N1CCCC1C(=O)NCC(N)=O (stereo unspecified) ([pGlu]H[ξAla(indol-2-yl)]SYK(X2)LRPG-NH2; configuration not given here) |  |  |  |  | Stable | Stable | 590 nM |  | Active | 833 nM | Metabolite_Detected |  |  | Active | Stable |  |  | 
3 | CC(C)CC(NC(=O)C(CCCCNC(=O)/C=N/OCC(=O)OC1C(CO)OC(n2ccc(N)nc2=O)C1(F)F)NC(=O)C(Cc1ccc(O)cc1)NC(=O)C(CO)NC(=O)C(Cc1cc2ccccc2[nH]1)NC(=O)C(Cc1c[nH]cn1)NC(=O)C1CCC(=O)N1)C(=O)NC(CCCNC(=N)N)C(=O)N1CCCC1C(=O)NCC(N)=O (stereo unspecified) ([pGlu]H[ξAla(indol-2-yl)]SYK(X3)LRPG-NH2; configuration not given here) |  |  |  |  | Unstable | Unstable | 494 nM |  | Active | 675 nM | Metabolite_Detected |  |  | Active | Unstable |  |  | 
4 | Nc1ccn([C@@H]2O[C@H](CO)[C@@H](O)C2(F)F)c(=O)n1 [GEMCITABINE] |  |  |  |  |  |  | 399 nM |  |  | 546 nM |  |  |  |  |  | 685 ng/mL | 0.3 ng/mL | 
5 | CCNC(=O)[C@@H]1CCCN1C(=O)[C@H](CCCNC(=N)N)NC(=O)[C@H](CC(C)C)NC(=O)[C@@H](CC(C)C)NC(=O)[C@H](Cc1ccc(O)cc1)NC(=O)[C@H](CO)NC(=O)[C@H](Cc1c[nH]c2ccccc12)NC(=O)[C@H](Cc1c[nH]cn1)NC(=O)[C@@H]1CCC(=O)N1 [LEUPROLIDE] |  |  |  |  |  |  |  |  |  |  |  |  |  |  |  |  |  | 40.9 ng/mL
